Measured values taken from the supplement of paper PMC10307832.

Tests used:
Experiment in all cases: relative viability (nuclei count vs DMSO), 5 days (fraction); higher = more cells survive
LU99A = tested on: LU99A
In short: (§1)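 Five library-drug doses in √10 steps were combined with a fixed anchor-drug dose, or a single drug was given alone, by pin tool to lung cancer cell lines in 1536-well plates the day after seeding. Nuclei were stained and counted after 5 days. Relative viability is the nuclei count in treated wells over that in vehicle wells, taken as the median of duplicate plates.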

NCI-H2023 = tested on: NCI-H2023
In short: as §1

NCI-H1651 = tested on: NCI-H1651
In short: as §1

NCI-H1355 = tested on: NCI-H1355
In short: as §1

HARA = tested on: HARA
In short: as §1

HCC-15 = tested on: HCC-15
In short: as §1

NCI-H2126 = tested on: NCI-H2126
In short: as §1

UMC-11 = tested on: UMC-11
In short: as §1

NCI-H1993 = tested on: NCI-H1993
In short: as §1

PC-14 = tested on: PC-14
In short: as §1

NCI-H650 = tested on: NCI-H650
In short: as §1

NCI-H1915 = tested on: NCI-H1915
In short: as §1

LC-2-ad = tested on: LC-2-ad
In short: as §1

EPLC-272H = tested on: EPLC-272H
In short: as §1

HOP-62 = tested on: HOP-62
In short: as §1

NCI-H2085 = tested on: NCI-H2085
In short: as §1

HCC-44 = tested on: HCC-44
In short: as §1

NCI-H838 = tested on: NCI-H838
In short: as §1

SW 1573 = tested on: SW 1573
In short: as §1

COR-L23 = tested on: COR-L23
In short: as §1

NCI-H2347 = tested on: NCI-H2347
In short: as §1

`Nc1ccn([C@@H]2O[C@H](CO)[C@@H](O)[C@@H]2O)c(=O)n1` [Cytarabine] + Nc1nc2[nH]cc(CCc3ccc(C(=O)N[C@@H](CCC(=O)O)C(=O)O)cc3)c2c(=O)[nH]1 [Pemetrexed] (partner 0.2 µM) showed a relative viability (LU99A; first compound 0.005 µM) of 0.22, a relative viability (LU99A; first compound 0.01581 µM) of 0.179 and a relative viability (LU99A; first compound 0.05 µM) of 0.177. The relative viability (LU99A; first compound 0.1581 µM) was 0.195, the relative viability (LU99A; first compound 0.5 µM) was 0.163 and the relative viability (NCI-H2023; first compound 0.005 µM) was 0.193. It also gave a relative viability (NCI-H2023; first compound 0.01581 µM) of 0.126, a relative viability (NCI-H2023; first compound 0.05 µM) of 0.105 and a relative viability (NCI-H2023; first compound 0.1581 µM) of 0.0804. It also gave a relative viability (NCI-H2023; first compound 0.5 µM) of 0.0895, a relative viability (NCI-H1651; first compound 0.005 µM) of 0.479 and a relative viability (NCI-H1651; first compound 0.01581 µM) of 0.569. The relative viability (NCI-H1651; first compound 0.05 µM) was 0.223, the relative viability (NCI-H1651; first compound 0.1581 µM) was 0.451 and the relative viability (NCI-H1651; first compound 0.5 µM) was 0.221. The relative viability (NCI-H1355; first compound 0.005 µM) was 0.883, the relative viability (NCI-H1355; first compound 0.01581 µM) was 0.988 and the relative viability (NCI-H1355; first compound 0.05 µM) was 0.821. The relative viability (NCI-H1355; first compound 0.1581 µM) was 0.553, the relative viability (NCI-H1355; first compound 0.5 µM) was 0.324 and the relative viability (HARA; first compound 0.005 µM) was 0.243. For the same compound, the relative viability (HARA; first compound 0.01581 µM) was 0.221, the relative viability (HARA; first compound 0.05 µM) was 0.217 and the relative viability (HARA; first compound 0.1581 µM) was 0.171. It also gave a relative viability (HARA; first compound 0.5 µM) of 0.153, a relative viability (HCC-15; first compound 0.005 µM) of 0.249 and a relative viability (HCC-15; first compound 0.01581 µM) of 0.215. The relative viability (HCC-15; first compound 0.05 µM) was 0.226, the relative viability (HCC-15; first compound 0.1581 µM) was 0.225 and the relative viability (HCC-15; first compound 0.5 µM) was 0.222. For the same compound, the relative viability (NCI-H2126; first compound 0.005 µM) was 0.76, the relative viability (NCI-H2126; first compound 0.01581 µM) was 0.775 and the relative viability (NCI-H2126; first compound 0.05 µM) was 0.525. For the same compound, the relative viability (NCI-H2126; first compound 0.1581 µM) was 0.549, the relative viability (NCI-H2126; first compound 0.5 µM) was 0.46 and the relative viability (UMC-11; first compound 0.005 µM) was 0.551. For the same compound, the relative viability (UMC-11; first compound 0.01581 µM) was 0.491, the relative viability (UMC-11; first compound 0.05 µM) was 0.428 and the relative viability (UMC-11; first compound 0.1581 µM) was 0.226. It also gave a relative viability (UMC-11; first compound 0.5 µM) of 0.195, a relative viability (NCI-H1993; first compound 0.005 µM) of 0.682 and a relative viability (NCI-H1993; first compound 0.01581 µM) of 0.548. For the same compound, the relative viability (NCI-H1993; first compound 0.05 µM) was 0.299, the relative viability (NCI-H1993; first compound 0.1581 µM) was 0.448 and the relative viability (NCI-H1993; first compound 0.5 µM) was 0.471. For the same compound, the relative viability (PC-14; first compound 0.005 µM) was 0.183, the relative viability (PC-14; first compound 0.01581 µM) was 0.156 and the relative viability (PC-14; first compound 0.05 µM) was 0.187. It also gave a relative viability (PC-14; first compound 0.1581 µM) of 0.0581, a relative viability (PC-14; first compound 0.5 µM) of 0.0565 and a relative viability (NCI-H650; first compound 0.005 µM) of 0.809. For the same compound, the relative viability (NCI-H650; first compound 0.01581 µM) was 0.581, the relative viability (NCI-H650; first compound 0.05 µM) was 0.283 and the relative viability (NCI-H650; first compound 0.1581 µM) was 0.171. For the same compound, the relative viability (NCI-H650; first compound 0.5 µM) was 0.157, the relative viability (NCI-H1915; first compound 0.005 µM) was 0.506 and the relative viability (NCI-H1915; first compound 0.01581 µM) was 0.563. It also gave a relative viability (NCI-H1915; first compound 0.05 µM) of 0.54, a relative viability (NCI-H1915; first compound 0.1581 µM) of 0.45 and a relative viability (NCI-H1915; first compound 0.5 µM) of 0.333. It also gave a relative viability (LC-2-ad; first compound 0.005 µM) of 0.28, a relative viability (LC-2-ad; first compound 0.01581 µM) of 0.31 and a relative viability (LC-2-ad; first compound 0.05 µM) of 0.286. For the same compound, the relative viability (LC-2-ad; first compound 0.1581 µM) was 0.268, the relative viability (LC-2-ad; first compound 0.5 µM) was 0.265 and the relative viability (EPLC-272H; first compound 0.005 µM) was 0.232. It also gave a relative viability (EPLC-272H; first compound 0.01581 µM) of 0.338, a relative viability (EPLC-272H; first compound 0.05 µM) of 0.289 and a relative viability (EPLC-272H; first compound 0.1581 µM) of 0.27. The relative viability (EPLC-272H; first compound 0.5 µM) was 0.222, the relative viability (HOP-62; first compound 0.005 µM) was 0.388 and the relative viability (HOP-62; first compound 0.01581 µM) was 0.411. For the same compound, the relative viability (HOP-62; first compound 0.05 µM) was 0.309, the relative viability (HOP-62; first compound 0.1581 µM) was 0.113 and the relative viability (HOP-62; first compound 0.5 µM) was 0.072. It also gave a relative viability (NCI-H2085; first compound 0.005 µM) of 0.788, a relative viability (NCI-H2085; first compound 0.01581 µM) of 0.921 and a relative viability (NCI-H2085; first compound 0.05 µM) of 0.906. It also gave a relative viability (NCI-H2085; first compound 0.1581 µM) of 0.703, a relative viability (NCI-H2085; first compound 0.5 µM) of 0.547 and a relative viability (HCC-44; first compound 0.005 µM) of 0.717. It also gave a relative viability (HCC-44; first compound 0.01581 µM) of 0.629, a relative viability (HCC-44; first compound 0.05 µM) of 0.67 and a relative viability (HCC-44; first compound 0.1581 µM) of 0.751. The relative viability (HCC-44; first compound 0.5 µM) was 0.774, the relative viability (NCI-H838; first compound 0.005 µM) was 0.243 and the relative viability (NCI-H838; first compound 0.01581 µM) was 0.235. It also gave a relative viability (NCI-H838; first compound 0.05 µM) of 0.272, a relative viability (NCI-H838; first compound 0.1581 µM) of 0.216 and a relative viability (NCI-H838; first compound 0.5 µM) of 0.213. The relative viability (SW 1573; first compound 0.005 µM) was 0.675, the relative viability (SW 1573; first compound 0.01581 µM) was 0.576 and the relative viability (SW 1573; first compound 0.05 µM) was 0.386. It also gave a relative viability (SW 1573; first compound 0.1581 µM) of 0.107, a relative viability (SW 1573; first compound 0.5 µM) of 0.0809 and a relative viability (COR-L23; first compound 0.005 µM) of 0.196. It also gave a relative viability (COR-L23; first compound 0.01581 µM) of 0.204, a relative viability (COR-L23; first compound 0.05 µM) of 0.206 and a relative viability (COR-L23; first compound 0.1581 µM) of 0.16. For the same compound, the relative viability (COR-L23; first compound 0.5 µM) was 0.158, the relative viability (NCI-H2347; first compound 0.005 µM) was 0.392 and the relative viability (NCI-H2347; first compound 0.01581 µM) was 0.522. It also gave a relative viability (NCI-H2347; first compound 0.05 µM) of 0.439, a relative viability (NCI-H2347; first compound 0.1581 µM) of 0.44 and a relative viability (NCI-H2347; first compound 0.5 µM) of 0.391.
